Measured values from article PMC8389807 (Journal of Medicinal Chemistry, 2021).
Like-named read-outs stand apart in the source and are kept apart here.

Columns and labels:
[1] = tested on: BrCr Lab Strain of EV-A71; test: Antiviral activity against the BrCr lab strain of EV-A71 in RD cells (CPE reduction, MTS/PMS); type: cell-based; settings: Enterovirus A, EVA71, RD, read-out: EC50
[2] = tested on: EV71 genogroup B2 strain 11316; test: microbe, parasite or virus in culture; type: cell-based; settings: Enterovirus A, genogroup B2, strain 11316, RD cells
[3] = target: T1, recombinant HIV-1 IIIB gp120 (Human immunodeficiency virus type 1 group M subtype B, UniProt P03375); test: biochemical; type: binding; settings: SPR, four replicates
T1 construct: purchased ImmunoDx, Woburn, Massachusetts; host or cells: Chinese hamster ovary cells

in vitro [4] = settings: human
[5] = target: gp120 binding of mAb clone 447-52D (Human immunodeficiency virus type 1, UniProt P03377); test: Competition with anti-gp120 mAb 447-52D on HIV-1-infected MT-4 cells (flow cytometry); type: cell-based, HIV-1 NL4.3
Procedure: (§1) We then investigated the putative gp120 binding site for this class of compounds using competition-binding experiments with mAbs directed to different protein regions: (i) human mAb clone 2G12, whose epitope, composed entirely of N-linked glycans, is centered at position N332;[56]
(§2) These tests were carried out in cell culture using CD4^+ MT-4 T cells that express high levels of gp120 on their membrane when they become infected.
anti-mouse mAb). This is background staining or called negative control (NC).
bPositive control. HIV-1 infected cells stained with the first (anti-HIV-1 envelope antibody) and then the
This is the positive control (PC).
Finally, the mannose-specific lectin Hippeastrum hybrid agglutinin

gp120-CD4 binding = target: T2, gp120-CD4 binding (Human immunodeficiency virus type 1 group M subtype B, UniProt P03375); test: biochemical
T2 construct: […]; purchased CD4: Life Technologies Europe, Merelbeke, Belgium; gp120: not restated here (ImmunoDx inferred)

[6] = target: gp120 binding of mAb 2G12 (Human immunodeficiency virus type 1, UniProt P03377); test: cell-based; type: cell-based; settings: HIV-1 NL4.3-infected MT-4 cells, flow cytometry
HIV-1 (Ba-L) = test: microbe, parasite or virus in culture; type: cell-based; settings: Human immunodeficiency virus 1, BAL; CCR5-tropic strain, PBMC; read-out: HIV-1 (Ba-L) EC50
EV-A71 VP1 (S184T/P246S) = type: cell-based
EV-A71 VP1 (P246S) = type: cell-based
[7] = tested on: EV71 genogroup C2 strain H08300 461#812; test: microbe, parasite or virus in culture; type: cell-based; settings: Enterovirus A, genogroup C2, strain H08300 461#812, RD cells
[8] = target: gp120 binding of mAb 9305 (Human immunodeficiency virus type 1, UniProt P03377); test: cell-based; settings: HIV-1 NL4.3-infected MT-4 cells, flow cytometry
HIV-1 (NL4.3) [9] = test: microbe, parasite or virus in culture; type: cell-based; settings: Human immunodeficiency virus 1; CXCR4-tropic strain, PBMC; read-out: HIV-1 (NL4.3) EC50
rhinovirus 2 = test: microbe, parasite or virus in culture; type: cell-based; settings: Enterovirus; rhinovirus 2, HeLa Rh host cell
HIV-2 (ROD) = test: Anti-HIV-2 activity in MT-4 cells (CPE, MTS/PES); type: cell-based; settings: Human immunodeficiency virus 2, MT4, MT-4 cells; 50% reduction of virus-induced cytopathic effect; read-out: HIV-2 (ROD) EC50
[10] = tested on: EV71 genogroup C4 strain TW/1956/05; test: microbe, parasite or virus in culture; type: cell-based; settings: Enterovirus A, genogroup C4, strain TW/1956/05, RD cells
rhinovirus 14 = test: microbe, parasite or virus in culture; type: cell-based; settings: Enterovirus; rhinovirus 14, HeLa Rh host cell
[11] = tested on: EV71 genogroup B5 strain TW/70902/08; test: microbe, parasite or virus in culture; type: cell-based; settings: Enterovirus A, genogroup B5, strain TW/70902/08, RD cells
[12] = target: gp120 binding of mAb clone 9284 (Human immunodeficiency virus type 1, UniProt P03377); test: Competition with anti-gp120 mAb 9284 on HIV-1-infected MT-4 cells (flow cytometry); type: cell-based, HIV-1 NL4.3
Procedure: as §1, §2

[13] = tested on: enterovirus D68 CU70 strain; test: microbe, parasite or virus in culture; type: cell-based; settings: Enterovirus D, HeLa Rh host cell
HIV-1 (NL4.3) [14] = test: microbe, parasite or virus in culture; type: cell-based; settings: Human immunodeficiency virus 1, MT4; MT-4 cells; 50% reduction of virus-induced cytopathic effect
in vitro [15] = settings: human; remark: listed apart in the source
[16] = tested on: coxsackievirus B3 Nancy strain; test: microbe, parasite or virus in culture; type: cell-based; settings: Enterovirus B, Vero A host cell
EV-A71 VP1 (S184T) = type: cell-based

**Q.** Which EC50 ([1]; BrCr lab strain, RD cells, 50% reduction of virus-induced CPE) does the source give for O=C(CCOCC(COCCC(=O)NC(Cc1c(-c2cc(C(=O)O)cc(C(=O)O)c2)[nH]c2c(-c3cc(C(=O)O)cc(C(=O)O)c3)cccc12)C(=O)O)(COCCC(=O)NC(Cc1c(-c2cc(C(=O)O)cc(C(=O)O)c2)[nH]c2c(-c3cc(C(=O)O)cc(C(=O)O)c3)cccc12)C(=O)O)COCCC(=O)NC(Cc1c(-c2cc(C(=O)O)cc(C(=O)O)c2)[nH]c2c(-c3cc(C(=O)O)cc(C(=O)O)c3)cccc12)C(=O)O)NC(Cc1c(-c2cc(C(=O)O)cc(C(=O)O)c2)[nH]c2c(-c3cc(C(=O)O)cc(C(=O)O)c3)cccc12)C(=O)O (stereo not drawn) [Compound 33] here?
**A.** 40 ± 10 nM

**Q.** And the EC50 ([1]; BrCr wild type (cross-resistance study))?
**A.** 30 ± 10 nM

**Q.** What about the EC50 ([1]; enterovirus panel, enterovirus A71 BrCr strain, RD host cell) of the same compound?
**A.** 40 ± 7 nM

**Q.** What about the EC50 ([1]; genogroup A, BrCr, RD cells (clinical isolate panel)) of the same compound?
**A.** 43 ± 6 nM

**Q.** And the EC50 [2]?
**A.** 101 ± 11 nM

**Q.** And the kd ([3]; 1:1 Langmuir model)?
**A.** 2.45 ± 0.34 ×10^–3 s^–1

**Q.** What about the kon ([3]; 1:1 Langmuir model, read-out: ka) of the same compound?
**A.** 3340 ± 1020 M⁻¹ s⁻¹

**Q.** What about the Kd ([3]; apparent KD) of the same compound?
**A.** 840 ± 340 nM

**Q.** And the CC50 (in vitro [4])?
**A.** > 100000 nM

**Q.** What about the IC50 ([5]; HIV-1 NL4.3-infected MT-4 cells, flow cytometry, average, read-out: 447-52D IC50) of the same compound?
**A.** 6800 nM

**Q.** What about the inhibition at 0.16 µM ([5]; MT4, mAb 447-52D, 0.16 µM, Table S1, read-out: % inhibition of antibody binding) of the same compound?
**A.** 16.9%

**Q.** What about the inhibition at 0.8 µM ([5]; MT4, mAb 447-52D, 0.8 µM, Table S1, read-out: % inhibition of antibody binding) of the same compound?
**A.** 23.9%

**Q.** What about the inhibition at 4 µM ([5]; MT4, mAb 447-52D, 4 µM, Table S1, read-out: % inhibition of antibody binding) of the same compound?
**A.** 36.5%

**Q.** What about the inhibition at 20 µM ([5]; MT4, mAb 447-52D, 20 µM, Table S1, read-out: % inhibition of antibody binding) of the same compound?
**A.** 76.9%

**Q.** And the “% inhibition of antibody binding” value ([5]; mAb 447-52D, 0.16 µM, Table S1, listed as AL-518, 0.16 µM)?
**A.** 17%

**Q.** And the “% inhibition of antibody binding” value ([5]; mAb 447-52D, 20 µM, Table S1, listed as AL-518, 20 µM)?
**A.** 77%

**Q.** What about the IC50 ([5]; mAb 447-52D, Table S1, read-out: IC50) of the same compound?
**A.** 6850 nM

**Q.** And the IC50 (gp120-CD4 binding; SPR, 25 nM gp120, immobilized CD4, read-out: concentration inhibiting 50% of gp120-CD4 binding)?
**A.** 10 to 40 nM

**Q.** And the “times more potent than AL-471” value (gp120-CD4 binding; inhibition of gp120-CD4 binding)?
**A.** at least 16

**Q.** And the “2G12 IC50” value [6]?
**A.** did not prevent the binding

**Q.** What about the IC50 [6] of the same compound?
**A.** > 100000 nM

**Q.** And the EC50 (HIV-1 (Ba-L))?
**A.** 36 nM

**Q.** What about the EC50 (EV-A71 VP1 (S184T/P246S)) of the same compound?
**A.** 60 ± 40 nM

**Q.** And the EC50 (EV-A71 VP1 (P246S))?
**A.** 30 ± 10 nM

**Q.** What about the EC50 [7] of the same compound?
**A.** 120 ± 6 nM

**Q.** And the IC50 [8]?
**A.** > 100000 nM

**Q.** What about the EC50 (HIV-1 (NL4.3) [9]) of the same compound?
**A.** 33 nM

**Q.** And the EC50 (rhinovirus 2)?
**A.** > 50000 nM

**Q.** And the EC50 (HIV-2 (ROD))?
**A.** ~60 nM

**Q.** And the EC50 [10]?
**A.** 11 ± 0.2 nM

**Q.** What about the EC50 (rhinovirus 14) of the same compound?
**A.** > 50000 nM

**Q.** And the EC50 [11]?
**A.** 10 ± 1.5 nM

**Q.** What about the IC50 ([12]; HIV-1 NL4.3-infected MT-4 cells, flow cytometry, average, read-out: 9284 IC50) of the same compound?
**A.** 3800 nM

**Q.** What about the inhibition at 0.16 µM ([12]; MT4, mAb 9284, 0.16 µM, Table S2, read-out: % inhibition of antibody binding) of the same compound?
**A.** 25.1%

**Q.** And the inhibition at 0.8 µM ([12]; MT4, mAb 9284, 0.8 µM, Table S2, read-out: % inhibition of antibody binding)?
**A.** 37.9%

**Q.** What about the inhibition at 4 µM ([12]; MT4, mAb 9284, 4 µM, Table S2, read-out: % inhibition of antibody binding) of the same compound?
**A.** 51.4%

**Q.** What about the inhibition at 20 µM ([12]; MT4, mAb 9284, 20 µM, Table S2, read-out: % inhibition of antibody binding) of the same compound?
**A.** 61.1%

**Q.** What about the “% inhibition of antibody binding” value ([12]; mAb 9284, 0.16 µM, Table S2, listed as AL-518, 0.16 µM) of the same compound?
**A.** 25%

**Q.** And the “% inhibition of antibody binding” value ([12]; mAb 9284, 20 µM, Table S2, listed as AL-518, 20 µM)?
**A.** 61%

**Q.** And the IC50 ([12]; mAb 9284, Table S2, read-out: IC50)?
**A.** 3370 nM

**Q.** What about the EC50 [13] of the same compound?
**A.** > 50000 nM

**Q.** And the EC50 (HIV-1 (NL4.3) [14])?
**A.** 6 ± 5 nM

**Q.** And the CC50 (in vitro [15])?
**A.** > 100000 nM

**Q.** And the EC50 [16]?
**A.** > 50000 nM

**Q.** And the EC50 (EV-A71 VP1 (S184T))?
**A.** 100 ± 10 nM
